Test results taken from PubChem BioAssay (NCI).
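48-hour exposure; five concentrations; linearly interpolated endpoints. GI50 is the concentration that inhibits growth by half. Definition used: TGI = concentration required for complete inhibition of growth.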

Experiments:
Assay in all cases: inhibition of tumour cell growth, NCI panel, 48 h
[1] = system: U251 CNS
[2] = system: 786-0 renal
[3] = system: DU-145 prostate
[4] = system: OVCAR-4 ovarian
[5] = system: HT29 colon
[6] = system: UO-31 renal
[7] = system: CCRF-CEM leukemia
[8] = system: SF-539 CNS
[9] = system: MDA-MB-231 breast
[10] = system: SNB-75 CNS
[11] = system: A549 NSCLC
[12] = system: KM12 colon
[13] = system: OVCAR-5 ovarian
[14] = system: ACHN renal
[15] = system: RPMI-8226 leukemia
[16] = system: NCI-H23 lung
[17] = system: M14 melanoma
[18] = system: NCI-H460 lung
[19] = system: HCC-2998 colon
[20] = system: BT-549 breast
[21] = system: HS 578T breast
[22] = system: UACC-257 melanoma
[23] = system: HCT-116 colon
[24] = system: RXF 393 renal
[25] = system: EKVX NSCLC
[26] = system: SK-MEL-2 melanoma
[27] = system: UACC-62 melanoma
[28] = system: HOP-62 NSCLC
[29] = system: SN12C renal
[30] = system: HOP-92 NSCLC
[31] = system: NCI-H522 lung
[32] = system: SF-268 CNS
[33] = system: SW-620 colon
[34] = system: MCF7 breast
[35] = system: MDA-MB-435
[36] = system: K-562 leukemia
[37] = system: OVCAR-8 ovarian
[38] = system: A498 renal
[39] = system: NCI-H226 lung
[40] = system: IGROV1 ovarian
[41] = system: SK-MEL-5 melanoma
[42] = system: CAKI-1 renal
[43] = system: TK-10 renal
[44] = system: NCI/ADR-RES ovarian
[45] = system: MOLT-4 leukemia
[46] = system: SNB-19 CNS
[47] = system: SK-MEL-28 melanoma
[48] = system: LOX IMVI melanoma
[49] = system: PC-3 prostate
[50] = system: SF-295 CNS
[51] = system: HCT-15 colon
[52] = system: OVCAR-3 ovarian
[53] = system: SR leukemia
[54] = system: HL-60(TB) leukemia
[55] = system: MALME-3M melanoma

SMILES: CCCOC(=O)N[C@H]1CCc2c(Cl)c(OC)c(OC)c(OC)c2-c2ccc(SC)c(=O)cc21
- GI50 [1]: < 0.01 µM
- TGI [1]: 12.2 µM
- GI50 [2]: < 0.0174 µM
- TGI [2]: 21.5 µM
- GI50 [3]: < 0.01 µM
- TGI [3]: 0.0575 µM
- GI50 [4]: < 0.012 µM
- TGI [4]: > 100 µM
- GI50 [5]: < 0.01 µM
- TGI [5]: 37.6 µM
- GI50 [6]: 0.0747 µM
- TGI [6]: 27.9 µM
- GI50 [7]: < 0.01 µM
- TGI [7]: > 100 µM
- GI50 [8]: < 0.01 µM
- TGI [8]: < 0.0356 µM
- GI50 [9]: < 0.01 µM
- TGI [9]: 4.71 µM
- GI50 [10]: < 0.01 µM
- TGI [10]: 14.5 µM
- GI50 [11]: < 0.0153 µM
- TGI [11]: > 100 µM
- GI50 [12]: < 0.01 µM
- TGI [12]: 1.63 µM
- GI50 [13]: < 0.013 µM
- TGI [13]: > 76.7 µM
- GI50 [14]: < 0.01 µM
- TGI [14]: 23.6 µM
- GI50 [15]: < 0.01 µM
- TGI [15]: 7.73 µM
- GI50 [16]: < 0.01 µM
- TGI [16]: 32.5 µM
- GI50 [17]: < 0.01 µM
- TGI [17]: 4.47 µM
- GI50 [18]: < 0.0112 µM
- TGI [18]: 0.944 µM
- GI50 [19]: < 0.0112 µM
- TGI [19]: 0.7 µM
- GI50 [20]: < 0.01 µM
- TGI [20]: 6.01 µM
- GI50 [21]: < 0.01 µM
- TGI [21]: 20.6 µM
- GI50 [22]: 7.46 µM
- TGI [22]: 37.5 µM
- GI50 [23]: < 0.01 µM
- TGI [23]: 12.7 µM
- GI50 [24]: < 0.01 µM
- TGI [24]: 8.41 µM
- GI50 [25]: < 0.01 µM
- TGI [25]: > 100 µM
- GI50 [26]: 1.88 µM
- TGI [26]: 29.9 µM
- GI50 [27]: < 0.01 µM
- TGI [27]: 13.8 µM
- GI50 [28]: 0.0101 µM
- TGI [28]: 50.9 µM
- GI50 [29]: < 0.0123 µM
- TGI [29]: 13.6 µM
- GI50 [30]: < 0.0119 µM
- TGI [30]: 4.65 µM
- GI50 [31]: < 0.01 µM
- TGI [31]: 0.271 µM
- GI50 [32]: < 0.0117 µM
- TGI [32]: 17.4 µM
- GI50 [33]: < 0.01 µM
- TGI [33]: > 52.5 µM
- GI50 [34]: < 0.01 µM
- TGI [34]: 13.1 µM
- GI50 [35]: < 0.01 µM
- TGI [35]: < 0.01 µM
- GI50 [36]: < 0.01 µM
- TGI [36]: > 100 µM
- GI50 [37]: < 0.0122 µM
- TGI [37]: > 100 µM
- GI50 [38]: < 0.01 µM
- TGI [38]: < 0.01 µM
- GI50 [39]: < 0.01 µM
- TGI [39]: 12.5 µM
- GI50 [40]: < 0.01 µM
- TGI [40]: > 65.6 µM
- GI50 [41]: < 0.01 µM
- TGI [41]: 0.0207 µM
- GI50 [42]: < 0.0226 µM
- TGI [42]: 14.1 µM
- GI50 [43]: 5.04 µM
- TGI [43]: > 88.4 µM
- GI50 [44]: 0.0269 µM
- TGI [44]: 21.6 µM
- GI50 [45]: < 0.01 µM
- TGI [45]: 23.6 µM
- GI50 [46]: < 0.01 µM
- TGI [46]: 27.4 µM
- GI50 [47]: 2.02 µM
- TGI [47]: 23.5 µM
- GI50 [48]: < 0.01 µM
- TGI [48]: 13 µM
- GI50 [49]: < 0.01 µM
- TGI [49]: > 100 µM
- GI50 [50]: < 0.01 µM
- GI50 [51]: < 0.01 µM
- TGI [51]: 16.6 µM
- GI50 [52]: < 0.01 µM
- TGI [52]: < 0.01 µM
- GI50 [53]: < 0.01 µM
- TGI [53]: 19.2 µM
- GI50 [54]: < 0.01 µM
- TGI [54]: < 0.01 µM
- GI50 [55]: < 0.01 µM
- TGI [55]: 17.1 µM
